PubChem BioAssay AID608 (Sanford-Burnham Center for Chemical Genomics, 2007)
The source made the active and inactive calls. No rule for the calls is given here.

Target: Peptidyl-prolyl cis-trans isomerase FKBP1A (Homo sapiens) (UniProt P62942)
Assay: small-molecule binding to FKBP12 – biophysical, NMR detection (AID 608)
Details: purified FKBP12

Sequence of Peptidyl-prolyl cis-trans isomerase FKBP1A (Homo sapiens) (P62942 whole entry, looked up): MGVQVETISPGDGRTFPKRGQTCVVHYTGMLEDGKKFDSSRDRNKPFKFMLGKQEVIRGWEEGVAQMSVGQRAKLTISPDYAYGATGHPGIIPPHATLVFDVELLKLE

For `O=P1(O)c2ccccc2Nc2ccccc21`, the Kd was > 4 mM (inactive).

In the case of `COC(=O)c1c(C)cc(OC(=O)c2c(C)cc(O)c(C=O)c2O)c(C)c1O`, the Kd is reported as > 4 mM (inactive).

`NC1=NC(=O)C(CC(=O)Nc2ccccc2F)S1` (stereo not given) was tested, and the Kd was > 4 mM (inactive).

In the case of `O=C(O)CNC(=O)c1ccc([N+](=O)[O-])cc1`, the Kd is reported as > 4 mM (inactive).

For `COc1ccc(-c2coc3cc(OC)cc(OC)c3c2=O)cc1`, the Kd was > 4 mM (inactive).

In the case of `Cc1cc(C)c(C(N)=O)c(=S)[nH]1`, the Kd is reported as > 4 mM (inactive).

`Cn1c(SCC(N)=O)nc2ccccc2c1=O` was tested, and the Kd was > 4 mM (inactive).

With `O=C(C1COc2ccccc2O1)N1CCOCC1` (stereo not given) the Kd was “inactive”.

With `CN(C)c1n[nH]c(=O)[nH]c1=O` the Kd was > 4 mM (inactive).

For `NC(=O)CC1Nc2cccc3cccc(c23)NC1=O` (stereo not given), the Kd was > 4 mM (inactive).

In the case of `CCOC(=O)c1c(C)[nH]c2ccc(O)cc12`, the Kd is reported as > 4 mM (inactive).

For `CC(C)NC(=O)Cc1c(O)c2ccccc2[nH]c1=O`, the Kd was > 4 mM (inactive).

`CC(=O)N1CC2(C)CN(C(C)=O)CC(C)(C1)C2O` (stereo not given) was tested, and the Kd was > 4 mM (inactive).

For `NC(=O)c1cccc(N2C(=O)C=CC2=O)c1`, the Kd was > 4 mM (inactive).

In the case of `Cc1nn2c(=O)c(NC(=O)c3ccccc3)cnc2s1`, the Kd is reported as > 4 mM (inactive).

With `O=C1N=c2ccccc2=C1c1sc(=S)[nH]c1O` the Kd was > 4 mM (inactive).

For `CN1CCN(C2CCSC2)CC1` (stereo not given), the Kd was > 4 mM (inactive).

`O=C(O)c1sccc1-n1cccc1` was tested, and the Kd was > 4 mM (inactive).

`CC(=O)c1c(O)cc(C)n(Cc2ccccc2)c1=O` was tested, and the Kd was > 4 mM (inactive).

`CC1CN(C(=O)c2ccncc2)CC(C)O1` (stereo not given) was tested, and the Kd was > 4 mM (inactive).

In the case of `CC(CCC(=O)O)[C@H]1CCC2C3C[C@H](O)[C@@H]4C[C@H](O)CC[C@]4(C)C3CC[C@@]21C` (stereo not given in full), the Kd is reported as > 4 mM (inactive).

For `Cc1cc(C)nc(Nc2n[nH]c(Cc3ccccc3)n2)n1`, the Kd was > 4 mM (inactive).

For `COc1ccc2c(c1OC)C(=O)O[C@@H]2[C@@H]1c2cc3c(cc2CCN1C)OCO3`, the Kd was > 4 mM (inactive).

For `COc1ccccc1NC(=O)c1ccc(C)s1`, the Kd was > 4 mM (inactive).

In the case of `COc1cccc(-c2nc3ccc(O)cc3c(=O)o2)c1`, the Kd is reported as > 4 mM (inactive).

`Nc1nc2ccc(C(=O)O)cc2s1` was tested, and the Kd was > 4 mM (inactive).

For `CC(C)NC1CS(=O)(=O)CC1O` (stereo not given), the Kd was > 4 mM (inactive).

`OCc1ccc2nsnc2c1` was tested, and the Kd was > 4 mM (inactive).

`CC(=O)Oc1ccc(N2C(=O)C3C4C=CC(O4)C3C2=O)cc1` (stereo not given) was tested, and the Kd was > 4 mM (inactive).

`CC(=O)N1CN(C(C)=O)CN(C(C)=O)C1` was tested, and the Kd was > 4 mM (inactive).

With `Cc1c(C)c2c(c(C)c1O)CCC(C)(CCCC(C)CCCC(C)CCCC(C)C)O2` (stereo not given) the Kd was > 4 mM (inactive).

With `S=C=NCc1ccccc1` the Kd was > 4 mM (inactive).

`c1coc(CNc2ncnc3nc[nH]c23)c1` was tested, and the Kd was > 4 mM (inactive).

`OC1CCNC2CCCCC12` (stereo not given) was tested, and the Kd was > 4 mM (inactive).

With `CC1(C)CC[C@]2(C(=O)O)CC[C@]3(C)C(=CCC4[C@@]5(C)CC[C@H](O)[C@@](C)(CO)C5CC[C@]43C)C2C1` (stereo not given in full) the Kd was > 4 mM (inactive).

`CN(C)C(=S)Nc1ccccc1N1CCOCC1` was tested, and the Kd was > 4 mM (inactive).

`COc1ccc(CCC(=O)N2CCOCC2)cc1` was tested, and the Kd was 0.204 mM.

In the case of `c1ccc(Cc2nnc(-c3ccccc3)o2)cc1`, the Kd is reported as > 4 mM (inactive).

For `O=C(NCc1cccc(Cl)c1)c1ccco1`, the Kd was > 4 mM (inactive).

In the case of `COc1ccc(S(=O)(=O)NCCO)cc1`, the Kd is reported as > 4 mM (inactive).

For `CC1CN(C(=O)COc2ccccc2Cl)CC(C)O1` (stereo not given), the Kd was > 4 mM (inactive).

With `Cc1ccsc1/C=c1\sc2ncnn2c1=O` the Kd was > 4 mM (inactive).

In the case of `c1ccc(-n2nnnc2Oc2cccc3cccnc23)cc1`, the Kd is reported as > 4 mM (inactive).

`O=C1CCC([N+](=O)[O-])C(c2ccccc2F)N1` (stereo not given) was tested, and the Kd was > 4 mM (inactive).

In the case of `NC1=NC(=O)/C(=C/c2ccc(O)c(Cl)c2)S1`, the Kd is reported as > 4 mM (inactive).

`CC(=O)c1c(C)nc(-c2ccc(Cl)cc2Cl)n1O` was tested, and the Kd was > 4 mM (inactive).

In the case of `O=C(Nc1cccnc1)c1c(F)cccc1F`, the Kd is reported as > 4 mM (inactive).

`OCc1cc(F)cc2c1OCOC2` was tested, and the Kd was > 4 mM (inactive).

For `O=C(O)C1=Cc2ccccc2OC1`, the Kd was > 4 mM (inactive).

For `CC1CN(C(=O)c2sc3ccccc3c2Cl)CC(C)O1` (stereo not given), the Kd was “inactive”.

For `Cc1cc(C)cc(C(=O)N2CCC(C(N)=O)CC2)c1`, the Kd was > 4 mM (inactive).

For `CC1(C)C(=O)[C@@H]2C[C@@]3(O)C4=CC(=O)O[C@@H](c5ccoc5)[C@]4(C)CCC3C(C)(C2=O)[C@H]1CC(=O)O` (stereo not given in full), the Kd was > 4 mM (inactive).

`O=C(O)Cc1c[nH]c2ccccc12` was tested, and the Kd was > 4 mM (inactive).

With `O=C(O)Cc1nc(-c2ccncc2)n[nH]1` the Kd was > 4 mM (inactive).

For `CNC(Cc1c[nH]c2ccccc12)C(=O)O` (stereo not given), the Kd was > 4 mM (inactive).

`Cc1c(F)cccc1NS(=O)(=O)c1ccccc1C#N` was tested, and the Kd was > 4 mM (inactive).

With `O=S1(=O)CCC(NC(=S)N2CCCCC2)C1` (stereo not given) the Kd was > 4 mM (inactive).

`CC1(C)C(=O)[C@@H]2O[C@@H]2[C@@]2(C)C1C[C@@H](O)[C@]1(C)C2CC[C@@]2(C)[C@H](c3ccoc3)OC(=O)C3OC321` (stereo not given in full) was tested, and the Kd was > 4 mM (inactive).

With `O=C1C[C@@H](c2ccc(O)cc2)Oc2cc(O)cc(O)c21` the Kd was > 4 mM (inactive).

For `O=C(Nc1ccccc1C(F)(F)F)N1CCCCCC1`, the Kd was > 4 mM (inactive).
